Experiments:
LNCaP cells = test: Boyden dual chamber migration assay; format: cell-based, human
Procedure: FIG. 7. CaMKKβ activity in the androgen-mediated migration and invasion of prostate cancer cells. A, LNCaP cells were plated in 96-well plates and grown for 3 d. […] On d 10, cells were lysed and the relative number of cells was measured with the fluorescent DNA binding dye FluoReporter Blue. Each sample was performed in triplicate, and results from a representative experiment are shown. […] Cells were then dissociated and reseeded into the top chamber for a Boyden migration or Matrigel extracellular matrix invasion assay. Fresh medium with the corresponding treatments was added to the top and bottom chambers while either no chemoattractant or 5% FBS (serum) was added to the bottom chamber. After 16 h, migrated cells were fixed, stained and counted in three different microscopic fields and added together. […] C top, LNCaP cells were transfected with indicated siRNAs. […] D right, LNCaP cells stably expressing either GAL4 (control) or CaMKKβ were subjected to a migration assay as described in B using +/-5% FBS as chemoattractant. The results are expressed as mean+SE (n=3). *, significant changes from LNCaP-GAL4 cells. D left, western blot confirming CaMKKβ […]expression. FIG. 11. Androgen-mediated migration occurs through a CaMKKβ-AMPK-dependent pathway. […] Results are expressed as fold induction/phosphorylation over double vehicle-treated cells+SE (n=3). *, significant changes from vehicle-treated cells. […] Results are expressed as fold induction/phosphorylation over LNCaP-GAL4 vehicle-treated cells+SE (n=3). *, significant changes from LNCaP-GAL4 vehicle-treated cells. […] The results are expressed as mean±SE (n=2). *, P<0.05 indicates significant changes from double vehicle-treated cells. ^#, P<0.05 indicates significant decreases from vehicle (no compound C)-treated cells. […] ACC is a direct target of AMPK and thus, was used as a readout of AMPK catalytic activity. […] Results are expressed as fold induction/phosphorylation over double vehicle-treated cells+SE (n=2). *, P<0.05 indicates significant changes from double vehicle-treated cells. […]

circulating tumor cells = conditions: patients having a castration-resistant type cancer; cited from earlier work
CaMKKβ mRNA = test: qPCR of CaMKKβ mRNA in prostate cancer cells; format: cell-based, human; conditions: for CaMKKβ mRNA levels: R1881 0.1, 1, 10 nM, 24 h
Procedure: (§1) FIG. 1. Androgens increase CaMKKβ levels in an AR-dependent manner. LNCaP or VCaP cells were treated for 24 h with vehicle or increasing concentrations of the synthetic androgen R1881 (A—0.1, 1, and 10 nM; B—0.01, 0.1, 1, and 10 nM). A, after treatment, cells were lysed, and RNA was isolated and reversed transcribed. The expression of CaMKKβ was assessed using qPCR. B, after treatment, cells were subjected to western blot analysis and subsequent densitometry (top). CaMKKβ protein levels were normalized to GAPDH loading control. A and B, results are expressed as fold induction over vehicle-treated cells+SE (n=3). *, significant changes from vehicle-treated cells. C, LNCaP cells were transiently transfected with mock or Stealth siRNAs targeting a negative control (siLacZ) or CaMKKβ (#1-3). Two days later, cells were treated for 24 h+/−10 nM R1881. Whole-cell extracts were subjected to western blot analysis and densitometry (top) as described in B. *, significant changes from mock-transfected cells. D, LNCaP cells were transfected as described in C with mock or Stealth siRNAs targeting LacZ or AR and treated for 24 h. The expression of CaMKKβ was assessed as in A using qPCR.
FIG. 9. Identification of the ARE that regulates CaMKKβ expression. A, LNCaP cells were pretreated for 1 h with vehicle or 1 mg/mL cycloheximide followed by vehicle or 10 nM R1881 for 24 h. CaMKKβ or CXCR4 mRNA levels were quantified using qPCR. Results are expressed as fold induction over vehicle (no R1881)-treated cells±SE (n=3). *, significant changes from vehicle-treated cells. B, LNCaP cells were treated with vehicle (V) or 10 nM R1881 for 1 or 4 h. Cross-linked chromatin was immunoprecipitated with indicated antibodies. […]
(§2) RNA isolation, cDNA preparation, and quantitative and standard reverse transcription (RT)-PCR. RNA isolation, cDNA preparation and quantitative RT-PCR (qPCR) were performed as previously described using 36B4 as a control (12). […]

CaMKKβ protein = test: Western blot of CaMKKβ protein in prostate cancer cells; format: cell-based, human; conditions: R1881 0.01, 0.1, 1, 10 nM, 24 h
Procedure: as §1
(§3) Western blot analysis. […] For each sample, protein levels were determined by densitometry using the ImageJ software (NIH) and normalizing to indicated controls.

[1] = test system: AR binding region ~2.3 kb upstream of the CaMKKβ transcriptional start site; test: Chromatin immunoprecipitation of AR at the CaMKKβ upstream region; format: cell-based, human; conditions: LNCaP; 10 nM R1881 for 1 or 4 h
Procedure: (§4) FIG. 9. Identification of the ARE that regulates CaMKKβ expression. A, LNCaP cells were pretreated for 1 h with vehicle or 1 mg/mL cycloheximide followed by vehicle or 10 nM R1881 for 24 h. CaMKKβ or CXCR4 mRNA levels were quantified using qPCR. Results are expressed as fold induction over vehicle (no R1881)-treated cells±SE (n=3). *, significant changes from vehicle-treated cells. B, LNCaP cells were treated with vehicle (V) or 10 nM R1881 for 1 or 4 h. Cross-linked chromatin was immunoprecipitated with indicated antibodies. The precipitated DNA was amplified using primers spanning a region identified using ChIP on Chip data as a potential AR-binding site (indicated in top schematic) or a distal upstream region (negative control). The results are presented as percent input±SE (n=3). *, significant changes from IgG controls. C, various enhancer luciferase reporter constructs (depicted in top model) were transfected into LNCaP cells and treated overnight+/−10 nM R1881. After treatment, cells were harvested and assayed for luciferase activity. Luciferase values were normalized to β-galactosidase control. Data are the mean relative light units (RLUs)+SEM for one representative experiment performed in triplicate (n=3). *, significant changes from vehicle-treated cells. […]

AMPK = test: Western blot of phospho-ACC (readout of AMPK catalytic activity); format: cell-based, human; conditions: LNCaP; 1 h 1, 10 or 40 mM compound C, overnight +/-10 nM R1881
Procedure: FIG. 13. AMPK and androgen-mediated prostate cancer cell migration. A, LNCaP cells were pretreated for 1 h with vehicle or increasing concentrations of compound C (10 or 40 mM) prior to overnight treatment+/−10 nM R1881 or 1 mM AICAR. Cells were then subjected to a migration assay as described in FIG. 7. The results are expressed as mean±SE (n=2). *, P<0.05 indicates significant changes from double vehicle-treated cells. ^#, P<0.05 indicates significant decreases from vehicle (no compound C)-treated cells. B, LNCaP cells were pretreated for 1 h with vehicle, 1, 10 or 40 mM compound C prior to overnight treatment+/−10 nM R1881. Cell lysates were then subjected to western blot analysis and subsequent densitometry (top). ACC is a direct target of AMPK and thus, was used as a readout of AMPK catalytic activity. Phospho-ACC (p-ACC) levels were normalized to total ACC. Results are expressed as fold induction/phosphorylation over double vehicle-treated cells+SE (n=2). *, P<0.05 indicates significant changes from double vehicle-treated cells. […]
as §3

CXCR4 mRNA = test: qPCR of CXCR4 mRNA in LNCaP cells; format: cell-based, human; conditions: 1 h 1 mg/mL cycloheximide, then 10 nM R1881 24 h
Procedure: as §4, with “control.” for “control. Data are the mean relative light units (RLUs)+SEM for one representative experiment performed in triplicate (n=3). *, significant changes from vehicle-treated cells.”
as §2

distant metastases = conditions: prostate cancer patients, clinical trials; cited from earlier work

For `NC(=O)c1ncn([C@@H]2O[C@H](CO)[C@@H](O)[C@H]2O)c1N` [AICAR, 5-aminoimidazole-4-carboxamide 1-b-D-ribo-furanoside], the “cell migration, treatment alone” value (LNCaP cells; overnight 1 mM AICAR, no androgen) was “sufficient to increase cell migration”.

In the case of `CNC(=O)c1ccc(N2C(=S)N(c3ccc(C#N)c(C(F)(F)F)c3)C(=O)C2(C)C)cc1F` [MDV3100], the “number of circulating tumor cells in patients” value (circulating tumor cells) is given as “decreases the number of circulating tumor cells in approximately half of the treated patients”.

For `C[C@]1(O)CC[C@H]2[C@@H]3CCC4=CC(=O)CCC4=C3C=C[C@@]21C` [R1881, Methyltrienolone], the “CaMKKβ mRNA levels” value (CaMKKβ mRNA; LNCaP) was “increased in a dose-dependent manner”, the “CaMKKβ mRNA levels” value (CaMKKβ mRNA; VCaP) was “increased in a dose-dependent manner” and the CaMKKβ protein levels (CaMKKβ protein; LNCaP) was “dose-dependent increase”. The CaMKKβ protein levels (CaMKKβ protein; VCaP) was “dose-dependent increase” and the “AR recruitment to the CaMKKβ upstream region” value [1] was “recruited to this region of the promoter within one hour”.

In the case of `c1cc(-c2cnn3cc(-c4ccc(OCCN5CCCCC5)cc4)cnc23)ccn1` [compound C], the androgen-mediated cell migration (LNCaP cells; 1 h pretreatment with compound C (10 or 40 mM), overnight 10 nM R1881) is reported as “completely abolished androgen-mediated cell migration” and the “AMPK kinase activity (phospho-ACC levels)” value (AMPK) is reported as “inhibited its kinase activity”.

For `C[C@@H]1C[C@@H]([C@H](O)CC2CC(=O)NC(=O)C2)C(=O)[C@@H](C)C1` [cycloheximide, Cycloheximide], the “R1881-mediated increase in CaMKKβ mRNA levels” value (CaMKKβ mRNA; LNCaP, 1 h 1 mg/mL cycloheximide, then 10 nM R1881 24 h) was “did not block” and the “expression of secondary androgen target genes (ex. CXCR4)” value (CXCR4 mRNA) was “inhibits the expression of secondary androgen target genes”.

For `CC(C)C[C@H](NC(=O)[C@@H](COC(C)(C)C)NC(=O)[C@H](Cc1ccc(O)cc1)NC(=O)[C@H](CO)NC(=O)[C@H](Cc1c[nH]c2ccccc12)NC(=O)[C@H](Cc1cnc[nH]1)NC(=O)[C@@H]1CCC(=O)N1)C(=O)N[C@@H](CCCNC(=N)N)C(=O)N1CCC[C@H]1C(=O)NNC(N)=O` [goserelin], the “incidences of distant metastases” value (distant metastases) is listed as “reduced incidences of distant metastases”.

Source: patent US9999620B2, “CaMKK-β as a target for treating cancer” (Duke University, priority 2010, dated 2018)
